Patent US20260137697A1, “THIAZOLO[5,4-D]PYRIMIDINE COMPOUNDS, COMPOSITIONS COMPRISING THEM AND USES THEREOF” (University de Montreal, priority 2022, published 2026)

Key:
BRAF = target: T1, BRAF (Homo sapiens, UniProt P15056); experiment: BRAF kinase activity assay (ADP-Glo); type: biochemical; conditions: Table 3; 10 μM ATP, kinase-dead MEK1 substrate
T1 construct: GST; purchased Millipore Sigma B4062-10UG
Description: (§1) Compound preparation: solid samples of each substance in 1dram vials were suspended in DMSO (Fisher Scientific) at a stock concentration of 20 mM. Stocks were kept at −20° C. and protected from light. If solubility of the compound at 20 mM appeared to be an issue, the initial concentration of the DMSO stock was changed to 10 mM or 5 mM.
(§2) In vitro enzymatic reactions were used for evaluating compounds intrinsic activity against BRAF, CRAF and ARAF. For BRAF and CRAF, 0.375 nM of purified GST-tagged kinases (cat. No. B4062-10UG and cat. No. R1656-10UG respectively from Millipore Sigma) were incubated with 75 nM of kinase-dead MEK1 substrate (cat. No. 40075; BPS Bioscience) in the presence of 10 μM of Ultrapure ATP (cat. No. V9102; Promega; part V915A) with and without the test compound in a buffer containing 50 mM HEPES pH 7.5, 10 mM MgCl2, 1 mM EDTA, 0.01% Brij-35 and 2 mM DTT. Separate reactions were performed with the MEK1 substrate and ATP as a blank control. ARAF kinase reactions were rigorously the same with the exception that kinase concentration was raised to 3.75 nM (cat. No. 1768-0000-1; Reaction Biology).
(§3) For compound treatment, 5 μL/well of test substance solution are placed in a 384-well proxyplate (Perkin Elmer) and mixed with 2× concentrated kinase reactions. The dilution series is selected so that nine concentrations cover a range from 100 nM to 0.01 nM. […] The final concentration of DMSO in the assay is set at 0.05%.
(§4) BRAF and CRAF kinase reactions were carried out for a total of 2 hours at 30° C. and then stopped by 1/2 dilution in ADP-Glo Reagent (cat. No. V9102; Promega; part V912C). Reactions were then incubated for 1 h at room temperature before addition of one volume of Kinase Detection Reagent (cat. No. V9102; Promega; part V917A). Plates were then equilibrated at room temperature for 30 minutes before detection of luminescence on a Synergy Neo2 plate reader (Biotek). The effect of each compound dilution on BRAF and CRAF kinase activity was expressed as % inhibition and calculated as follows. First, the internal 100% inhibition control (average of luminescence in kinase reactions comprising kinase dead MEK1 substrate alone) was subtracted from each data point. The average of DMSO (vehicle) controls (set as 0% inhibition) was established and used to calculate % inhibition:
(§5) IC50 values were obtained by plotting the kinase inhibition values and fitting the dose-activity curves using a log(agonist) versus response—variable slope (four parameters) function using either GraphPadPrism (V7.0) or Dotmatics Screening Ultra platform. Standards included in the ARAF kinase assay were Belvarafenib (MedChem Express cat. No. HY-109080; CAS No. 1446113-23-0), LXH254 (MedChem Express cat. No. HY-112089; CAS No. 1800398-38-2) and BGB283 (cat. No. HY-18957; CAS No. 1446090-79-4).

CRAF = target: T2, CRAF (Homo sapiens, UniProt P04049); experiment: CRAF kinase activity assay (ADP-Glo); type: biochemical; conditions: Table 3; 10 μM ATP, kinase-dead MEK1 substrate
T2 construct: fused on or other part: GST tag (N-terminal according to the vendor's product)
T2 sequence (P04049 whole entry Y340E/Y341E, form open, the tested form may be a part): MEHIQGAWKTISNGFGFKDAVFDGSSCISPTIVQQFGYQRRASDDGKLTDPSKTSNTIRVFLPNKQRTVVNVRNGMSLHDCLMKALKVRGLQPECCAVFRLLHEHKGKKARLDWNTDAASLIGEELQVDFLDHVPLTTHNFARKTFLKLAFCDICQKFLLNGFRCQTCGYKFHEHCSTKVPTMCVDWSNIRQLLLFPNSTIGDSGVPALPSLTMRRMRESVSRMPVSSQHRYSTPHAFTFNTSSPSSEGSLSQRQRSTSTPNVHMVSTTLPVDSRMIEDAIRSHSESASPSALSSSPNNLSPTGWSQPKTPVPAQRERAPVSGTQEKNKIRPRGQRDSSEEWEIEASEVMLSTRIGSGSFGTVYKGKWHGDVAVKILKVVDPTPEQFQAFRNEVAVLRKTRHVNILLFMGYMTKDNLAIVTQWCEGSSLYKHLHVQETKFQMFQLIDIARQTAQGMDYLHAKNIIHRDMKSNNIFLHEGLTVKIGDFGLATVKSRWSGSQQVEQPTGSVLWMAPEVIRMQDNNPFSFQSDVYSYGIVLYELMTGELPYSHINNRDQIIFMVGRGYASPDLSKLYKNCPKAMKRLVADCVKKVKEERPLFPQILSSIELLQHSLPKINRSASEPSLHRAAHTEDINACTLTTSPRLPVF
Description: as §1, §2, §3, §4, §5

pERK, HCT116 cells = experiment: Phospho-ERK inhibition, AlphaLISA p-ERK 1/2, HCT-116; type: cell-based, human; conditions: Table 3; for IC50: HCT116 cells (KRAS G13D), 1 h treatment; for HCT116 pERK (Ymin %): lowest % inhibition value of the pERK IC50 curve, above −20% = no paradoxical induction
Description: All cancer cell lines (A375, A101D, A2058, RKO, HT29 SK-MEL 30, IPC298, HepG2, HCT-116, Lovo, SW620, SW480, NCI-H358, NCI-H2122, Calu-6, NCIH2087, NCIH1755, NCIH1666 and Mewo) were obtained from ATCC and cultured in RPM1-1640 medium (Gibco) supplemented with 5% heat inactivated fetal bovine serum (FBS, Wisent) at 37° C. under 5% CO2. Cells were maintained in T175 flasks (Greiner). They were passaged by removing the culture medium, washing once in 10 mL of room temperature Phosphate Buffered Saline (PBS; Wisent) and incubating at 37° C. with 2 mL of 0.05% Trypsin (Thermo-Fisher). Trypsin was then inactivated by adding complete growth medium and the cells were then replated in a T175 culture dish at the appropriate dilution. All cell lines were routinely tested for mycoplasma contamination. Tissue type and mutational status of each cell line can be found in Table B.
(c) Measurement of Phospho-ERK Inhibition in Cultivated Human Cancer Cell Lines by the AlphaLISA® SureFire® Ultra™ p-ERK 1/2 (Thr2O2/Tyr204)
AlphaLISA® SureFire® Ultra™ p-ERK 1/2 (Thr202/Tyr204) analysis was conducted on cells plated in 100 μL of complete RPMI-1640 growth medium in 96-well flat-bottomed transparent dishes (Costar) at a density indicated in Table C. Cells were maintained overnight at 37° C. under 5% CO2 before treatment with compounds' dilution series for one hour. The cell density in cells/cm^2 corresponds to cell number divided by the area of one well of a 96-well plate (0.143 cm^2).
In a dilution series 100 μL/well of test substance dilution prepared in complete RPMI-1640 growth media was added to the cells. The dilution series is selected so that ten concentrations cover a range from 10 μM to 0.33 nM. If necessary, the initial concentration of 10 μM is increased to 100 μM or lowered to 1 μM (as in the case of A375 and H1666 cells, which are generally more sensitive to the compounds) and further dilution is carried out accordingly. The final concentration of DMSO in the assay is set at 0.5%.
After treatment, media was removed, and cells were lysed in 50 μL of 1× AlphaScreen Ultra Lysis Buffer (Perkin Elmer). The AlphaLISA® SureFire® Ultra™ p-ERK 1/2 (Thr202/Tyr204) (PerkinElmer) reactions were performed with 5 μL of cell lysate according to the manufacturer's specifications in 384-well proxyplates (Perkin Elmer) followed by overnight incubation of the reactions at room temperature in a humidified chamber. After completion of the reactions, the signals were recorded on an EnVision plate reader (Perkin Elmer) using built in AlphaLISA® settings.
The effect of each compound dilution on the pERK signal was expressed in % inhibition and calculated as follows. An internal 100% inhibition control (1 μM trametinib, cat. No. HY-10999; MedChem Express; CAS No. 871700-17-3) was included in each plate and used as a measure of pERK background. First, the value obtained for trametinib was subtracted from each data point. The average of DMSO (vehicle) controls (set as 0% inhibition) was established and used to calculate % inhibition:
The ability of each compound to inhibit pERK signal was expressed as an IC50 value obtained by plotting the inhibition values for each data point of a dilution series and fitting the obtained curves using a log(agonist) versus response—variable slope (four parameters) function using GraphPadPrism (V7.0) or Dotmatics Screening Ultra platform.
When present, paradoxical pERK induction is inferred from the negative % inhibition values observed in the pERK IC50 curves of a compound.

T1 sequence (P15056 whole entry): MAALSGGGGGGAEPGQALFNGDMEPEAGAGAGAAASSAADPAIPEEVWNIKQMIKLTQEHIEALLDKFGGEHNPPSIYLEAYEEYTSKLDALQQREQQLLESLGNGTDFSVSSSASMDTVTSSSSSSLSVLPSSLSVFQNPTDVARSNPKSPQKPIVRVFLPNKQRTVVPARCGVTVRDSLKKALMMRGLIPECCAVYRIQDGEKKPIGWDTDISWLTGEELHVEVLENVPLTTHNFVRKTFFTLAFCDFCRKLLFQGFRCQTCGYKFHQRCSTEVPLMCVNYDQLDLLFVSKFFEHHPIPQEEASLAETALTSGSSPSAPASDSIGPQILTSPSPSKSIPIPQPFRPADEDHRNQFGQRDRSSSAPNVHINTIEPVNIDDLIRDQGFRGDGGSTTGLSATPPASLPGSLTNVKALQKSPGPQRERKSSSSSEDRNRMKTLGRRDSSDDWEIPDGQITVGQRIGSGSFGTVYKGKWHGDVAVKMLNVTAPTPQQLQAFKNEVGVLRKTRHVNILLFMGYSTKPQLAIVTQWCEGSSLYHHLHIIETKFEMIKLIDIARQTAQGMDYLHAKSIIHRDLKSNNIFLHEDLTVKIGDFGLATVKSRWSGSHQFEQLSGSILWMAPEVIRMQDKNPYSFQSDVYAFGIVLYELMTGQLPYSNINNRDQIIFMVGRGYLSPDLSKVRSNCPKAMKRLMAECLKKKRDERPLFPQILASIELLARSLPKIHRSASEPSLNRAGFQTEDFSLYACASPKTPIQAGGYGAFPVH

IC50 (BRAF)	IC50 (CRAF)	IC50 (pERK, HCT116 cells)	IC50 (pERK, HCT116 cells; Homo sapiens, HCT-116)	Compound	HCT116 pERK (Ymin %) (pERK, HCT116 cells)
1 to 10 nM	< 10 nM	< 500 nM	–	Cc1ncn(-c2nc3c(Nc4c(F)ccc(NS(=O)(=O)c5cccc(F)c5C)c4F)ncnc3s2)c1C [Example 1]	−11%
1 to 10 nM	< 10 nM	< 500 nM	–	Nc1cccc2c1ncn2-c1nc2c(Nc3c(F)ccc(NS(=O)(=O)c4cccc(Cl)c4Cl)c3F)ncnc2s1 [Example 3]	−9%
1 to 10 nM	< 10 nM	–	500 to 1000 nM	O=S(=O)(Nc1ccc(F)c(Nc2ncnc3sc(-n4cnc5ccccc54)nc23)c1F)c1cccc(Cl)c1Cl [Example 4, N-[3-[[2-(benzimidazol-1-yl)thiazolo[5,4-d]pyrimidin-7-yl]amino]-2,4-difluoro-phenyl]-2,3-dichloro-benzenesulfonamide]	–
1 to 10 nM	< 10 nM	< 500 nM	–	Cc1c(Cl)cccc1S(=O)(=O)Nc1ccc(F)c(Nc2ncnc3sc(-n4cnc5c(N)cccc54)nc23)c1F [Example 5]	−6%
1 to 10 nM	< 10 nM	500 to 1000 nM	–	Cc1c(Cl)cccc1S(=O)(=O)Nc1ccc(F)c(Nc2ncnc3sc(-n4cnc5ccccc54)nc23)c1F [Example 6]	−4%
1 to 10 nM	10 to 50 nM	–	500 to 1000 nM	Cc1c(F)cccc1S(=O)(=O)Nc1ccc(F)c(Nc2ncnc3sc(-n4cnc5c(-c6cccnc6)cccc54)nc23)c1F [Example 8]	–
1 to 10 nM	10 to 50 nM	–	1000 to 10000 nM	CN1CCN(S(=O)(=O)c2cn(-c3nc4c(Nc5c(F)ccc(NS(=O)(=O)c6cccc(Cl)c6Cl)c5F)ncnc4s3)c3ccccc23)CC1 [Example 12]	–
1 to 10 nM	10 to 50 nM	500 to 1000 nM	–	COc1ccc(S(=O)(=O)Nc2ccc(F)c(Nc3ncnc4sc(-n5cnc6ccccc65)nc34)c2F)c(C)c1F [Example 16]	−8%
1 to 10 nM	10 to 50 nM	–	1000 to 10000 nM	O=S(=O)(Nc1ccc(F)c(Nc2ncnc3sc(-n4cnc5c(C(F)(F)F)cccc54)nc23)c1F)c1cccc(Cl)c1Cl [Example 17]	–
< 1 nM	< 10 nM	< 500 nM	–	O=S(=O)(Nc1ccc(F)c(Nc2ncnc3sc(-n4cnc5c(F)cccc54)nc23)c1F)c1cccc(Cl)c1Cl [Example 18]	0%
1 to 10 nM	< 10 nM	500 to 1000 nM	–	O=S(=O)(Nc1ccc(F)c(Nc2ncnc3sc(-n4cnc5cc(F)c(F)cc54)nc23)c1F)c1cccc(Cl)c1Cl [Example 19]	−14%
1 to 10 nM	10 to 50 nM	< 500 nM	–	Cc1cc2ncn(-c3nc4c(Nc5c(F)ccc(NS(=O)(=O)c6cccc(Cl)c6Cl)c5F)ncnc4s3)c2cc1C [Example 20]	−12%
> 10 nM	10 to 50 nM	1000 to 10000 nM	–	O=S(=O)(Nc1ccc(F)c(Nc2ncnc3sc(-n4nnc5ccccc54)nc23)c1F)c1cccc(Cl)c1Cl [Example 21]	−4%
> 10 nM	> 50 nM	1000 to 10000 nM	–	Cc1c(F)cccc1S(=O)(=O)Nc1ccc(F)c(Nc2ncnc3sc(-n4nnc5ccccc54)nc23)c1F [Example 22]	−8%

Compound	IC50 (BRAF)	IC50 (CRAF)	IC50 (pERK, HCT116 cells)	IC50 (pERK, HCT116 cells; Homo sapiens, HCT-116)	HCT116 pERK (Ymin %) (pERK, HCT116 cells)
Cc1c(F)cccc1S(=O)(=O)Nc1ccc(F)c(Nc2ncnc3sc(-n4cnc5c(N)cccc54)nc23)c1F [Example 2]	1 to 10 nM	10 to 50 nM	< 500 nM	–	−1%
Cc1c(F)cccc1S(=O)(=O)Nc1ccc(F)c(Nc2ncnc3sc(-n4cnc5ccccc54)nc23)c1F [Example 7]	1 to 10 nM	< 10 nM	< 500 nM	–	−5%
O=S(=O)(Nc1ccc(F)c(Nc2ncnc3sc(-n4cnc5c(-c6cccnc6)cccc54)nc23)c1F)c1cccc(Cl)c1Cl [Example 9]	1 to 10 nM	< 10 nM	500 to 1000 nM	–	−9%
Cc1c(Cl)cccc1S(=O)(=O)Nc1ccc(F)c(Nc2ncnc3sc(-n4cnc5c(-c6cccnc6)cccc54)nc23)c1F [Example 10]	1 to 10 nM	10 to 50 nM	1000 to 10000 nM	–	−2%
CN(Cc1ccncc1)S(=O)(=O)c1cn(-c2nc3c(Nc4c(F)ccc(NS(=O)(=O)c5cccc(Cl)c5Cl)c4F)ncnc3s2)c2ccccc12 [Example 11]	1 to 10 nM	< 10 nM	1000 to 10000 nM	–	4%
COc1ccc(S(=O)(=O)Nc2ccc(F)c(Nc3ncnc4sc(-n5cnc6c(N)cccc65)nc34)c2F)c(C)c1Cl [Example 13]	1 to 10 nM	10 to 50 nM	1000 to 10000 nM	–	−14%
COc1ccc(S(=O)(=O)Nc2ccc(F)c(Nc3ncnc4sc(-n5cnc6ccccc65)nc34)c2F)c(C)c1Cl [Example 14]	1 to 10 nM	10 to 50 nM	1000 to 10000 nM	–	−14%
COc1ccc(S(=O)(=O)Nc2ccc(F)c(Nc3ncnc4sc(-n5cnc6c(N)cccc65)nc34)c2F)c(C)c1F [Example 15]	1 to 10 nM	10 to 50 nM	< 500 nM	–	−3%
